Data reported in patent US20240247080A1, “GLP1/GIP/NPY2 RECEPTOR TRIPLE AGONISTS” (Boehringer Ingelheim International GmbH, priority 2022, published 2024).
Like-named read-outs stand apart in the source and are kept apart here. Starred links: 1 amine or outer side, 2 acyl side, 3 side chain; linkers in the order of their positions; H or OH if unused. Non-standard residues stand in square brackets, D forms with d. Residues, ends and D or L forms follow the SMILES beside them. Groups on a side chain read outwards from the residue. ξ: configuration not given here. *: point of attachment. C18 diacid = O=C(O)CCCCCCCCCCCCCCCCC(=O)*; γGlu = O=C(O)[C@H](CCC(=O)[*:2])N[*:1]; NMeY = CN[C@@H](Cc1ccc(O)cc1)C(=O)O; Palmitoyl = CCCCCCCCCCCCCCCC(=O)*; αMeF = C[C@](N)(Cc1ccccc1)C(=O)O; ξIva = CCC(C)(N)C(=O)O; AEEA = NCCOCCOCC(=O)O; Aib = CC(C)(N)C(=O)O

Key:
hGLP1R = biological target: T1, hGLP1R (Homo sapiens, UniProt P43220); experiment: hGLP1R CreLuc reporter gene assay in 0.5% and 100% plasma; assay type: cell-based; details: CreLuc reporter gene assay, 0.5% human plasma; read-out: hGLP1R 0.5% hP
T1 construct: expressed in transfected cells; host or cells: HEK-293 cells carrying a CRE-luciferase reporter gene
T1 sequence (P43220 24-463): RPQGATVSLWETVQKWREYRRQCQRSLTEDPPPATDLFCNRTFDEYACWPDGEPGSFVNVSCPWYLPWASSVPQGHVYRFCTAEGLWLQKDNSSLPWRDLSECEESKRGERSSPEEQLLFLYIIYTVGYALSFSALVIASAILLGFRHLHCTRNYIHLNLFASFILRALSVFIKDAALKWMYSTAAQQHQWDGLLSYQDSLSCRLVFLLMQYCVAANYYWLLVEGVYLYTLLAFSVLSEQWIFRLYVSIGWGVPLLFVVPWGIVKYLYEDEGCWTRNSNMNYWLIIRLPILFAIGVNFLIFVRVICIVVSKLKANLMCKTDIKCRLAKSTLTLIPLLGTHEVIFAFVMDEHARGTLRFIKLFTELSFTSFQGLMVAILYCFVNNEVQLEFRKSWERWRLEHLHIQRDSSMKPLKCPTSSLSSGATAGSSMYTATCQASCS
Outline: (§1)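 Agonist EC50s came from 8-concentration curves over four decades, fitted by non-linear variable-slope regression of CRE-driven luciferase luminescence. Cells were exposed 4 h at 37 °C, in buffer with 0.5% human plasma or in 100% plasma; GIPR was expressed in CHO cells, GLP-1R and NPY2R in HEK cells.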

hGIPR = biological target: T2, hGIPR (Homo sapiens, UniProt P48546); experiment: hGIPR CreLuc reporter gene assay in 0.5% and 100% plasma; assay type: cell-based; details: CreLuc reporter gene assay
T2 construct: expressed in transfected cells; host or cells: CHO cells carrying a CRE-luciferase reporter gene
T2 sequence (P48546 22-466): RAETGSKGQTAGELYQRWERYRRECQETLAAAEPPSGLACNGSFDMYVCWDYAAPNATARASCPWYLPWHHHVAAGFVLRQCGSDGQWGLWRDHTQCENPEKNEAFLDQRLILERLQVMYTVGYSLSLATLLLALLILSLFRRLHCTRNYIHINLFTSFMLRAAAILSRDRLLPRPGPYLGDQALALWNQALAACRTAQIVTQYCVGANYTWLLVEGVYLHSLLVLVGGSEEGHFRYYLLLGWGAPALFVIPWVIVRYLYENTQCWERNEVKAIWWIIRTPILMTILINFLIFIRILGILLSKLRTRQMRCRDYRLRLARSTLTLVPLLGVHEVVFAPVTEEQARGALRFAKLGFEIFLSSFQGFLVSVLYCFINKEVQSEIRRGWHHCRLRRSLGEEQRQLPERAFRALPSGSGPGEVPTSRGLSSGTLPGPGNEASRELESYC
Outline: as §1

hNPY2R = biological target: T3, hNPY2R (Homo sapiens, UniProt P49146); experiment: hNPY2R CreLuc reporter gene assay in 0.5% and 100% plasma; assay type: cell-based; details: CreLuc reporter gene assay
T3 construct: expressed in transfected cells; host or cells: HEK-293 cells carrying a CRE-luciferase reporter gene
T3 sequence (P49146 1-381): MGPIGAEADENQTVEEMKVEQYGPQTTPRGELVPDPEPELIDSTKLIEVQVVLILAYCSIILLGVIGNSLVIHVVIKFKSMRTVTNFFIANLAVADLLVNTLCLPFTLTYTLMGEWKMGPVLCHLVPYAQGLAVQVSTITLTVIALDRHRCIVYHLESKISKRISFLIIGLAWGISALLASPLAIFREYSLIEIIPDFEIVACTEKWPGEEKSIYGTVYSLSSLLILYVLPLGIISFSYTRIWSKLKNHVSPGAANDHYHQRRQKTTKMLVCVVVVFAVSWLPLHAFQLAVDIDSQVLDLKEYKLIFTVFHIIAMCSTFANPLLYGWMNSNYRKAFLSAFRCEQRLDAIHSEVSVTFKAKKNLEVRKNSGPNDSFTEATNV
Outline: as §1

[1] = Mouse PK after intravenous application; assay type: in vivo; details: mean residence time, intravenous 30-60 nmol/kg, male NMRI mice
Outline: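 Male NMRI mice (30–40 g) received 30-60 nmol/kg peptide by tail-vein injection, dissolved in 50 mM phosphate buffer (pH 7.4)/3.5% mannitol. Saphenous blood was sampled up to 56 hours post-dose and EDTA plasma analysed by LC-MS. PK parameters came from non-compartmental analysis.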

[2] = Effect on acute food intake in normal NMRI mice; assay type: in vivo; details: 30 nmol/kg subcutaneously once, normalized to vehicle group, male NMRI mice
Method: Example 4: Effect on Acute Food Intake in Normal NMRI Mice
Male NMRI mice were obtained from Janvier (Janvier Labs, France) or from Charles River (Charles River Research Models & Services Germany GmbH) at the age of 3 weeks. The animals get a microchip (Datamars, Slim Microchip T-SL) for individual identification after delivery. They were housed with 4 mice per cage under a 12/12 dark-light cycle, light off at 3 p.m. Room temperature was controlled to 21° C. +/−1° C. and humidity 60%+/−20%. Mice had ad libitum access to regular rodent chow (KLIBA Nafag 3040 or Altromin 1324, Brogaarden, Denmark) and tap water.
Latest transfer into the HM2-System of MBRose, Denmark (real-time monitoring system of food- and water intake) of the animals 5 days before study start, to allow acclimatization to experimental conditions. As the animals were uniquely identified with the microchips, each individual animal was identified by its own microchip upon entry and exit from the food channel via antennae. Randomization of the mice for each study group (n=8; age earliest 6 weeks old) was based on food intake (middle of last three days 24 h-Intervall) and bodyweight directly before start of the study. A vehicle treated (50 mM phosphate buffer pH7.4 with 3.5% Mannitol) group was included in each experiment. To have the same nutrition standard for each animal the food access was locked eight hours before dark phase. One hour before night, the animals were once treated subcutaneously with the test peptide. Food intake was reported hourly for a period of 24 h.

[3] = Solubility in 0.1 M phosphate buffer at pH 7; assay type: physicochemical
Method: Peptides (as TFA-salts) were weighed out in a filter unit (Mini-UniPrep Syringieless Filter 0.45 prn. Whatman PVDF), and 0.1 M phosphate buffer at pH 7 was added to achieve 10 mg/mL final peptide concentration. The peptides were dissolved by shaking the filter units horizontally at 600 rpm for 2 hours at room temperature. Samples were then filtered to remove any insoluble particles. Controls were prepared by weighing out the corresponding peptide solid material and dissolving it in an appropriate vehicle (e.g. ACN:H2O) to a final concentration of 1 mg/mL. Both, the control and sample were analyzed by reversed phase chromatography. The area under the peak of the sample was compared to the control and the solubility was calculated based on that ratio. The pH was measured and recorded for each sample.

[4] = 0.5% human plasma, read-out: hGIPR 0.5% hP
[5] = 100% human plasma, read-out: hGIPR 100% hP

Compound | EC50 (hGLP1R) [nM] | EC50 (hGIPR; [4]) [nM] | EC50 (hGIPR; [5]) [nM] | EC50 (hNPY2R; 100% human plasma, read-out: hNPY2R 100% hP) [nM] | MRT ([1]; plasma) [h] | Acute Food Intake 24 h 30 nmol/kg [% CTL] [2] [% CTL] | solubility [3] [µg/mL] | MRT ([1]; in vivo) [h] | solubility ([3]; phosphate buffer) [µg/mL] | EC50 (hNPY2R; 0.5% human plasma, read-out: hNPY2R 0.5% hP) [nM]
CC[C@H](C)[C@H](NC(=O)[C@H](CC(C)C)NC(=O)[C@H](Cc1c[nH]c2ccccc12)NC(=O)[C@H](CCC(N)=O)NC(=O)[C@@H](NC(=O)[C@H](Cc1ccccc1)NC(=O)[C@H](C)NC(=O)C(C)(C)NC(=O)[C@H](CCC(N)=O)NC(=O)[C@H](C)NC(=O)[C@H](CCC(N)=O)NC(=O)[C@H](CCCCN)NC(=O)[C@H](CCC(=O)O)NC(=O)[C@H](CC(C)C)NC(=O)C(C)(C)NC(=O)[C@@H](NC(=O)[C@H](CO)NC(=O)[C@H](Cc1ccc(O)cc1)NC(=O)[C@H](CC(=O)O)NC(=O)[C@H](CO)NC(=O)[C@@H](NC(=O)[C@H](Cc1ccccc1)NC(=O)[C@@H](NC(=O)CNC(=O)[C@H](CCC(=O)O)NC(=O)C(C)(C)NC(=O)[C@@H](N)Cc1ccc(O)cc1)[C@@H](C)O)[C@@H](C)O)[C@@H](C)CC)C(C)C)C(=O)N[C@@H](CCCCNC(=O)[C@@H](N)CCCCNC(=O)CC[C@H](NC(=O)CC[C@H](NC(=O)CC[C@H](NC(=O)CC[C@H](NC(=O)CC[C@H](NC(=O)CC[C@H](NC(=O)CCCCCCCCCCCCCCCCC(=O)O)C(=O)O)C(=O)O)C(=O)O)C(=O)O)C(=O)O)C(=O)O)C(=O)NCC(=O)NCC(=O)N1CCC[C@H]1C(=O)N[C@@H](CO)C(=O)N[C@@H](CCC(=O)O)C(=O)NCC(=O)N[C@@H](C)C(=O)N[C@@H](CO)C(=O)N[C@@H](CC(C)C)C(=O)N[C@@H](CCCNC(=N)N)C(=O)N[C@@H](Cc1c[nH]cn1)C(=O)N[C@@H](Cc1ccc(O)cc1)C(=O)N[C@@H](Cc1ccc(O)cc1)C(=O)N[C@@H](CC(N)=O)C(=O)N[C@@H](Cc1c[nH]c2ccccc12)C(=O)N[C@@H](CC(C)C)C(=O)N[C@H](C(=O)N[C@@H](CCCNC(=N)N)C(=O)N[C@@H](CCC(N)=O)C(=O)N[C@@H](CCCNC(=N)N)C(=O)N[C@@H](Cc1ccc(O)cc1)C(N)=O)[C@@H](C)O [Compound 265, Y-Aib-E-G-T-F-T-S-D-Y-S-I-Aib-L-E-K-Q-A-Q-Aib-A-F-V-Q-W-L-I-K(1,3)-GGPSEGASLRHYYNWLTRQRY-NH2.C18DA-gGlu-gGlu-gGlu-gGlu-gGlu-gGlu-eLys(1,2)] | 0.1 | 0.39 | 0.79 | 23 | 8.5 | 50 | – | – | – | –
CCCCCCCCCCCCCCCC(=O)NCC(=O)NCC(=O)NCC(=O)NCC(=O)NCCCC[C@H](NC(=O)[C@H](CC(=O)O)NC(=O)[C@H](CO)NC(=O)[C@@H](NC(=O)[C@](C)(Cc1ccccc1)NC(=O)[C@@H](NC(=O)CNC(=O)[C@H](CCC(=O)O)NC(=O)C(C)(C)NC(=O)[C@H](Cc1ccc(O)cc1)NC)[C@@H](C)O)[C@@H](C)O)C(=O)N[C@@H](CO)C(=O)N[C@H](C(=O)NC(C)(C)C(=O)N[C@@H](CC(C)C)C(=O)N[C@@H](CCC(=O)O)C(=O)N[C@@H](CCCCN)C(=O)N[C@@H](CCC(N)=O)C(=O)N[C@@H](CCCNC(=N)N)C(=O)N[C@@H](CCC(N)=O)C(=O)NC(C)(CC)C(=O)N[C@@H](CCC(=O)O)C(=O)N[C@@H](Cc1ccccc1)C(=O)N[C@H](C(=O)N[C@@H](CCCNC(=N)N)C(=O)N[C@@H](Cc1c[nH]cn1)C(=O)N[C@@H](CC(C)C)C(=O)N[C@@H](CC(C)C)C(=O)N[C@@H](CC(N)=O)C(=O)N[C@@H](CCCCN)C(=O)NC(C)(C)C(=O)N[C@H](C(=O)N[C@@H](CCCNC(=N)N)C(=O)N[C@@H](CCC(N)=O)C(=O)N[C@@H](CCCNC(=N)N)C(=O)N[C@@H](Cc1ccc(O)cc1)C(N)=O)[C@@H](C)O)C(C)C)[C@@H](C)CC (stereo partly drawn) [Ref. 1, NMeY-Aib-E-G-T-aMeF-T-S-D-K(1,3)-S-I-Aib-L-E-K-Q-R-Q-Iva-E-F-V-R-H-L-L-N-K-Aib-T-R-Q-R-Y-NH2.C16A-G-G-G-G(1,2), reference compound] (H-[NMeY][Aib]EGT[αMeF]TSDK([Gly-Gly-Gly-Gly-Palmitoyl])SI[Aib]LEKQRQ[ξIva]EFVRHLLNK[Aib]TRQRY-NH2) | – | – | – | – | – | – | < 1000 | < 1 | – | –
CC[C@H](C)[C@H](NC(=O)[C@H](CO)NC(=O)[C@H](CCCCNC(=O)CNC(=O)CNC(=O)CNC(=O)CNC(=O)CCCCCCCCCCCCCCCCC(=O)O)NC(=O)[C@H](CC(=O)O)NC(=O)[C@H](CO)NC(=O)[C@@H](NC(=O)[C@](C)(Cc1ccccc1)NC(=O)[C@@H](NC(=O)CNC(=O)[C@H](CCC(=O)O)NC(=O)C(C)(C)NC(=O)[C@H](Cc1ccc(O)cc1)NC)[C@@H](C)O)[C@@H](C)O)C(=O)NC(C)(C)C(=O)N[C@@H](CC(C)C)C(=O)N[C@@H](CCC(=O)O)C(=O)N[C@@H](CCCCN)C(=O)N[C@@H](CCC(N)=O)C(=O)N[C@@H](CCCNC(=N)N)C(=O)N[C@@H](CCC(N)=O)C(=O)NC(C)(CC)C(=O)N[C@@H](CCC(=O)O)C(=O)N[C@@H](Cc1ccccc1)C(=O)N[C@H](C(=O)N[C@@H](CCCNC(=N)N)C(=O)N[C@@H](Cc1c[nH]cn1)C(=O)N[C@@H](CC(C)C)C(=O)N[C@@H](CC(C)C)C(=O)N[C@@H](CC(N)=O)C(=O)N[C@@H](CCCCN)C(=O)NC(C)(C)C(=O)N[C@H](C(=O)N[C@@H](CCCNC(=N)N)C(=O)N[C@@H](CCC(N)=O)C(=O)N[C@@H](CCCNC(=N)N)C(=O)N[C@@H](Cc1ccc(O)cc1)C(N)=O)[C@@H](C)O)C(C)C (stereo partly drawn) [Ref. 2, NMeY-Aib-E-G-T-aMeF-T-S-D-K(1,3)-S-I-Aib-L-E-K-Q-R-Q-Iva-E-F-V-R-H-L-L-N-K-Aib-T-R-Q-R-Y-NH2.C18DA-G-G-G-G(1,2), reference compound] (H-[NMeY][Aib]EGT[αMeF]TSDK([Gly-Gly-Gly-Gly-C18 diacid])SI[Aib]LEKQRQ[ξIva]EFVRHLLNK[Aib]TRQRY-NH2) | – | – | – | – | 4.3 | – | – | – | < 1000 | –
H-Y[Aib]EGTFTSDYSI[Aib]LEKQAQ[Aib]EFVEWLIK([AEEA-AEEA-γGlu-γGlu-γGlu-γGlu-C18 diacid])GGPSSGASLRHYYNWLTRQRY-NH2 [Compound 145, Y-Aib-E-G-T-F-T-S-D-Y-S-I-Aib-L-E-K-Q-A-Q-Aib-E-F-V-E-W-L-I-K(1,3)-GGPSSGASLRHYYNWLTRQRY-NH2.C18DA-gGlu-gGlu-gGlu-gGlu-OEG-OEG(1,2)] | 0.31 | 0.28 | 1.23 | – | 8 | 43 | – | – | – | 11.9
